# Where two headings read alike, the source gives them in different places.
# Legend:
# [1] = compared with MTX; cited from earlier work
# K562 cells = test: Growth inhibition of human leukemia cells (K562); type: cell-based; conditions: for IC50: Homo sapiens; for times more compound as compared with MTX required to inhibit cell growth by 50%: relative to MTX
# Description: The IC50 value is the drug concentration which inhibits cancer cell growth by 50%.
# Two suspensions of human leukemia cell lines were employed in this study. The myelogenous leukemia cell line K562 was cultured in RPMI 1640 (JRH Biosciences) containing 10% filtered fetal bovine serum (FBS; Irvine Scientific), and the lymphoblastic leukemia cell line CCRF/CEM was cultured in RPMI 1640 containing 20% FBS, 100 U/ml penicillin (GIBCO Laboratories, Grand Island, N.Y.), and 100 μg/ml streptomycin (GIBCO). Cells were maintained at 37° C. with 5% CO2 in air, and were cultured using standard sterile tissue culture techniques.
# Prior to toxicity studies, cells were maintained 48 hours in the absence of added inhibitor. Logarithmically growing cells were inoculated at 1×10^4 cells/ml in tissue culture grade Petri dishes (35×10 mm), and, following a suitable recovery period, were treated with chemical agents. Inhibitor concentrations ranging from 10^-12 to 10^-4 M were added to the cultures except for a control culture, which contained no added drug. Cell counts were performed by hematometer counting during 120 hours of continuous exposure to the drugs. The IC50 value was obtained by interpolation from graphs of percent growth inhibition plotted against drug concentration.
# L. casei DHFR = biological target: T1, L. casei DHFR (Lacticaseibacillus casei, UniProt P00381); test: Inhibition of DHFR, spectrophotometric assay (L. casei DHFR); type: biochemical; conditions: pH 7.0, read-out: ID50 (drug concentration which inhibits enzyme activity by 50%)
# T1 construct: purchased New England Enzyme Center (Boston, Mass.); host or cells: MTX-resistant L. casei
# T1 sequence (P00381 whole entry): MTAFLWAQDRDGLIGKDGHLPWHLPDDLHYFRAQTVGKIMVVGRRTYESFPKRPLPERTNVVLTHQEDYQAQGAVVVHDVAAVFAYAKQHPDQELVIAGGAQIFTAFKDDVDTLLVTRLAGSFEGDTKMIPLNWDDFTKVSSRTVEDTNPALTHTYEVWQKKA
# Description: (§1) Tests were conducted to determine the ID50 value for methotrexate analogs of the present invention. The ID50 value is the drug concentration which inhibits enzyme activity by 50%. […] DHFR activity was measured as the decrease over time in absorbance at 340 nm.
# (§2) DHFR was diluted prior to each experiment in 50 mM potassium phosphate buffer (pH 7.0) containing 0.1 mM NADPH and 0.1% BSA.
# (§3) Inhibition studies were carried out by adding to a 1.0 ml cuvette the assay solution containing all components except dihydrofolate, and then incubating the solution for 2 minutes at room temperature. The absorbance of the solution at 340 nm was recorded immediately following the addition of dihydrofolate. The mixtures were then incubated at room temperature for 5 minutes, and the absorbance at 340 nm was again recorded. […] ID50 values were determined by interpolation from graphs of percent of inhibition plotted against drug concentration.
# Chicken Liver DHFR = biological target: T2, Chicken Liver DHFR (Gallus gallus, UniProt P00378); test: Inhibition of DHFR, spectrophotometric assay (chicken liver DHFR); type: biochemical; conditions: for IC50: chicken liver DHFR, pH 7.0, read-out: ID50 (drug concentration which inhibits enzyme activity by 50%)
# T2 construct: purchased Sigma Chemical Co. (St. Louis, Mo.); host or cells: chicken liver
# T2 sequence (P00378 1-189): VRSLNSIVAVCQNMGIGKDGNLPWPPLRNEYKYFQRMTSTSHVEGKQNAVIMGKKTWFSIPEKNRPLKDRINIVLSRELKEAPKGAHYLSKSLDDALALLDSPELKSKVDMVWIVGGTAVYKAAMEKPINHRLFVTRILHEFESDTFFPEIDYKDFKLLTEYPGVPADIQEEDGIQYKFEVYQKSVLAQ
# Description: as §1, §2, §3
# CCRF/CEM Cells = test: Growth inhibition of human leukemia cells (CCRF/CEM); type: cell-based; conditions: 120 hours continuous exposure
# Description: Two suspensions of human leukemia cell lines were employed in this study. […] Cells were maintained at 37° C. with 5% CO2 in air, and were cultured using standard sterile tissue culture techniques.
# Prior to toxicity studies, cells were maintained 48 hours in the absence of added inhibitor. […] Inhibitor concentrations ranging from 10^-12 to 10^-4 M were added to the cultures except for a control culture, which contained no added drug. Cell counts were performed by hematometer counting during 120 hours of continuous exposure to the drugs. The IC50 value was obtained by interpolation from graphs of percent growth inhibition plotted against drug concentration.
# [2] = Metabolism in rabbit liver homogenate (formation of 7-OH-MTX); type: in vitro ADME, New Zealand white rabbit; conditions: pH 7.6
# Description: For these experiments, freshly isolated liver from a New Zealand white rabbit was homogenized in 400 ml of cold buffer of pH 7.6 consisting of 10 mM Tris-HCl, 25 mM sucrose and 10 mM MgCl2. The homogenate was centrifuged at 1000×g for 20 minutes at 4° C., and the resulting pellet was resuspended in about 14 ml of the same buffer. […] Two ml samples of the homogenate were removed at 10 minute intervals. Samples were boiled S minutes to denature the proteins, and then centrifuged to pelletize cell debris. To determine inhibitor and 7-OH-MTX levels, 100 μl of the supernatant was analyzed by HPLC. For HPLC analysis, a Perkin-Elmer 410 LC solvent delivery system and a 5-μm IBM ODS column (4.1×250 mm) with a Guard column were employed. The mobile phase consisted of 0.1M monobasic sodium phosphate and 0.1M Tris-HCl in methanol at a final pH of 7.6. […] Detector output was recorded and integrated by a Perkin-Elmer LCI 100 integrator.
# [3] = cited from earlier work
# [4] = K562 cells, 120 hours continuous exposure, read-out: IC50
Structure (SMILES),IC50 (K562 cells; [4]) [nM],IC50 (L. casei DHFR) [nM],IC50 (Chicken Liver DHFR) [nM],IC50 (CCRF/CEM Cells) [nM],further results
"CN(Cc1cnc2nc(N)nc(N)c2n1)c1c(F)cc(C(=O)N[C@@H](CCC(=O)O)C(=O)O)cc1F [3',5'-difluoroMTX]",–,–,–,–,"antifolate antagonism / biological activity, in words [1]: little or no increase in biological activity as compared with MTX"
"CNc1nc2nc(N)nc(N)c2nc1CN(C)c1ccc(C(=O)N[C@@H](CCC(=O)O)C(=O)O)cc1 [7-CH3 NH-MTX, 4-amino-7-methylamino-N-10-methylpteroylglutamic acid]",300,200,300,300,times more compound as compared with MTX required to inhibit cell growth by 50% (K562 cells; K562 and CCRF/CEM cells): 25-40 times
CN(Cc1nc2c(N)nc(N)nc2nc1Cl)c1ccc(C(=O)N[C@@H](CCC(=O)O)C(=O)O)cc1 [7-Cl-MTX],10000,50000,20000,10000,–
CN(Cc1nc2c(N)nc(N)nc2nc1F)c1ccc(C(=O)N[C@@H](CCC(=O)O)C(=O)O)cc1 [7-F-MTX],850,500,1500,5000,–
CN(Cc1nc2c(N)nc(N)nc2nc1N=[N+]=[N-])c1ccc(C(=O)N[C@@H](CCC(=O)O)C(=O)O)cc1 [7-N3 -MTX],1000,200,400,2000,–
"CN(Cc1nc2c(N)nc(N)nc2nc1N)c1ccc(C(=O)N[C@@H](CCC(=O)O)C(=O)O)cc1 [7-NH2 -MTX, 4,7-diamino-N-10-methylpteroylglutamic acid]",50,168,140,76,"ability to inhibit growth of leukemia cell lines, in words (K562 cells; K562 and CCRF/CEM cells): still effective at inhibiting the growth of the leukemia cell lines; times more compound as compared with MTX required to inhibit cell growth by 50% (K562 cells; K562 and CCRF/CEM cells): 6-7 times; effectiveness as DHFR inhibitor, in words (Chicken Liver DHFR; chicken liver and L. casei DHFR): still relatively effective as a DHFR inhibitor; metabolism to 7-OH-MTX, in words [2]: not even a slight metabolism of 7-NH2 -MTX to 7-OH-MTX could be detected over an hour"
CC(C)Nc1nc2nc(N)nc(N)c2nc1CN(C)c1ccc(C(=O)N[C@@H](CCC(=O)O)C(=O)O)cc1 [7-NHCH(CH3)2 -MTX],500,750,500,5000,–
CCOc1nc2nc(N)nc(N)c2nc1CN(C)c1ccc(C(=O)N[C@@H](CCC(=O)O)C(=O)O)cc1 [7-OC2 H5 -MTX],850,1200,2000,4000,–
COc1nc2nc(N)nc(N)c2nc1CN(C)c1ccc(C(=O)N[C@@H](CCC(=O)O)C(=O)O)cc1 [7-OCH3 -MTX],450,1000,750,4500,–
CC(C)Oc1nc2nc(N)nc(N)c2nc1CN(C)c1ccc(C(=O)N[C@@H](CCC(=O)O)C(=O)O)cc1 [7-OCH(CH3)2 -MTX],1000,670,200,6000,–
CN(Cc1nc2c(N)nc(N)nc2nc1P(=O)(O)O)c1ccc(C(=O)N[C@@H](CCC(=O)O)C(=O)O)cc1 [7-P(O)(OH)2 -MTX],6000,15000,10000,–,–
Cc1nc2nc(N)nc(N)c2nc1CN(C)c1ccc(C(=O)N[C@@H](CCC(=O)O)C(=O)O)cc1 [7-methyl substituted MTX],–,–,–,–,"antifolate antagonism / biological activity, in words [1]: impaired antifolate antagonism"
CN(Cc1cnc2nc(N)nc(N)c2n1)c1ccc(C(=O)N[C@@H](CCC(=O)O)C(=O)O)cc1 [MTX],–,–,–,11,"renal and hepatic toxicity, in words ([3]; high dose regimen): associated with renal and hepatic toxicity; conversion in vivo, in words ([3]; man and monkeys): converted in vivo to 7-hydroxymethotrexate (7-OH-MTX); IC50 (K562 cells; K562, 120 h): 8 nM; metabolism to 7-OH-MTX, in words ([2]; over an hour, 37° C.): substantially metabolized to 7-OH-MTX within an hour; metabolised at 10 min ([2]; rabbit, liver homogenate): ~50%; remaining at 1 h ([2]; rabbit, liver homogenate): < 25%"

# Source: patent US5698556A, “Methotrexate analogs and methods of using same” (priority 1995, dated 1997)
